Laboratory results from ChEMBL document CHEMBL2380224, “Fragment-based ligand design of novel potent inhibitors of tankyrases” (J Med Chem, 2013).
pIC50: −log10 of the molar value.

What was measured:
[1] = species: Homo sapiens; experiment: Selectivity ratio of IC50 for TNKS1 (unknown origin) to IC50 for TNKS2 PARP domain (947 to 1162) (unknown origin)
[2] = target: T1, Poly [ADP-ribose] polymerase tankyrase-1 (Homo sapiens, UniProt O95271); experiment: Inhibition of TNKS1 (unknown origin)
T1 sequence (O95271 whole entry): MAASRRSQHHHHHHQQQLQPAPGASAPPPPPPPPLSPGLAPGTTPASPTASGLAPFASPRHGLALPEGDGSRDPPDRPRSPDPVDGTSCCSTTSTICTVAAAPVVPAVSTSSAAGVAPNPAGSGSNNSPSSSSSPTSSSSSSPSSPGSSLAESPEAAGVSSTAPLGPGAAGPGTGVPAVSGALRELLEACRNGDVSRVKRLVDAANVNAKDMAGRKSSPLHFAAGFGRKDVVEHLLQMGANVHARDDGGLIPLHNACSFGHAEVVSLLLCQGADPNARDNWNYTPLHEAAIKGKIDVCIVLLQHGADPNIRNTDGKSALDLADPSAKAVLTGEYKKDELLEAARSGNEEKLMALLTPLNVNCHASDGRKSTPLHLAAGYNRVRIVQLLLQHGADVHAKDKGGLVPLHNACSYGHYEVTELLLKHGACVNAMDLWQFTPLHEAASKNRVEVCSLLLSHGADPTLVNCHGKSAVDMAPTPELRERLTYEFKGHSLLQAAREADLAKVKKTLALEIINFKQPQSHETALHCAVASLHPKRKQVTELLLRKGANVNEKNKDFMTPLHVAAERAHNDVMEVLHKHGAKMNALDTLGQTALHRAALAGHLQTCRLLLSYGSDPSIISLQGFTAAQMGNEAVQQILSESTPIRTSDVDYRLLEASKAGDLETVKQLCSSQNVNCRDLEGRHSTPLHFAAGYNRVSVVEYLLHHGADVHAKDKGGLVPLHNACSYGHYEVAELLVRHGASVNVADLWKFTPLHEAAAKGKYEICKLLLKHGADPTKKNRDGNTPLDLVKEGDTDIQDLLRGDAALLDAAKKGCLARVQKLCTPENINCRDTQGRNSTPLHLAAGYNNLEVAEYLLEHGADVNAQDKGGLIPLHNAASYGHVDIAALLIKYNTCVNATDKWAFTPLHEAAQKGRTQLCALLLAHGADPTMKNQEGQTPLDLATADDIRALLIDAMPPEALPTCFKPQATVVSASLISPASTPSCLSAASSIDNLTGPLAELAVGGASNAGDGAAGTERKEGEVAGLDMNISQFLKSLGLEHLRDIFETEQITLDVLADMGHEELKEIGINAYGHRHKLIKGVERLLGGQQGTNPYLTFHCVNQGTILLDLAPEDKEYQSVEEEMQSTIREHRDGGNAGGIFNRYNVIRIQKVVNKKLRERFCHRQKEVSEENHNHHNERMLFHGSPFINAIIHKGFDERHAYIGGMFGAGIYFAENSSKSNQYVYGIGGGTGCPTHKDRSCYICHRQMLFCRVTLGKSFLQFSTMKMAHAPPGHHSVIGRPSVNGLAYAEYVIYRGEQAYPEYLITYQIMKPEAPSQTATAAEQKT

[3] = target: T2, Protein mono-ADP-ribosyltransferase TIPARP (Homo sapiens) (UniProt Q7Z3E1); experiment: Inhibition of PARP7 (unknown origin) at 10 uM relative to control
T2 sequence (whole entry): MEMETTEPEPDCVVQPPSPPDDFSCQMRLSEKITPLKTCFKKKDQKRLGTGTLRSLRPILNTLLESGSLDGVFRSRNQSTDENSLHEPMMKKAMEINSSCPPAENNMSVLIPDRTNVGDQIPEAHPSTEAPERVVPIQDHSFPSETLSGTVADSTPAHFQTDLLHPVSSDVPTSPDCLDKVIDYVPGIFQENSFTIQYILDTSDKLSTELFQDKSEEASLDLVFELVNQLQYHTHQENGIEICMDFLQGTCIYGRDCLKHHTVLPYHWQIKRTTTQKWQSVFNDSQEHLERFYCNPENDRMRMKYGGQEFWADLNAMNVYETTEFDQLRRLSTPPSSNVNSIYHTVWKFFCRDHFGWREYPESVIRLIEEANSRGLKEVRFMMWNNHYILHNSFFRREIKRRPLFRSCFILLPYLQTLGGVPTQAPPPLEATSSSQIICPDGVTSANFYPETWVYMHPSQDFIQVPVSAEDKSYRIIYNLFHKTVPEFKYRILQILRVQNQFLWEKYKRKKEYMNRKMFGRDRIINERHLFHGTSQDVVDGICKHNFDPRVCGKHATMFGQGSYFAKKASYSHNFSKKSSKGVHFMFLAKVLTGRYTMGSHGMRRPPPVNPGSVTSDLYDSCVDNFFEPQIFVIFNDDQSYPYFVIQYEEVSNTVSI

[4] = target: T3, Protein mono-ADP-ribosyltransferase PARP11 (Homo sapiens) (UniProt Q9NR21); experiment: Inhibition of PARP11 (unknown origin) at 10 uM relative to control
T3 sequence (whole entry): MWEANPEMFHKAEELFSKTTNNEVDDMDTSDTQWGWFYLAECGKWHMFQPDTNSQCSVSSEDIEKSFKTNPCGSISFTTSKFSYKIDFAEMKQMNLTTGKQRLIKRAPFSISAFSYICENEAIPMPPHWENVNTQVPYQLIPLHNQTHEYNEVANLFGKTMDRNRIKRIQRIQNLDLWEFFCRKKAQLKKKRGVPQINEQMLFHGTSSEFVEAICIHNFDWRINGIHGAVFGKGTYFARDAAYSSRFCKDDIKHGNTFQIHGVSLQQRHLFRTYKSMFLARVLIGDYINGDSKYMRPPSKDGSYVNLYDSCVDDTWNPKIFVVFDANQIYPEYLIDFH

Ratio IC50 [1]: 16.5
pIC50 [2]: 6.07
inhibition [3]: 37%
inhibition [4]: 23%
Structure (SMILES): Cc1cc(=O)[nH]c2cc(-c3ccccc3F)ccc12
